PubChem BioAssay (NCI)
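The compound was tested at five concentrations on cells cultured in 96-well plates, with a 48-hour exposure period. GI50 = concentration required for 50% inhibition of growth. The concentration for full growth arrest is given as TGI.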

Experiments:
Experiment in all cases: inhibition of tumour cell growth, NCI panel, 48 h
A549 NSCLC = tested on: A549 NSCLC
786-0 renal = tested on: 786-0 renal
OVCAR-4 ovarian = tested on: OVCAR-4 ovarian
T-47D breast = tested on: T-47D breast
SK-OV-3 ovarian = tested on: SK-OV-3 ovarian
A498 renal = tested on: A498 renal
SR leukemia = tested on: SR leukemia
UACC-62 melanoma = tested on: UACC-62 melanoma
K-562 leukemia = tested on: K-562 leukemia
OVCAR-3 ovarian = tested on: OVCAR-3 ovarian

Row | SMILES | TGI (A549 NSCLC) [µM] | TGI (786-0 renal) [µM] | TGI (OVCAR-4 ovarian) [µM] | TGI (T-47D breast) [µM] | TGI (SK-OV-3 ovarian) [µM] | TGI (A498 renal) [µM] | TGI (SR leukemia) [µM] | TGI (UACC-62 melanoma) [µM] | TGI (K-562 leukemia) [µM] | TGI (OVCAR-3 ovarian) [µM] | GI50 (A549 NSCLC) [µM] | GI50 (OVCAR-4 ovarian) [µM] | GI50 (SK-OV-3 ovarian) [µM] | GI50 (A498 renal) [µM] | GI50 (OVCAR-3 ovarian) [µM] | GI50 (UACC-62 melanoma) [µM] | GI50 (K-562 leukemia) [µM] | GI50 (T-47D breast) [µM] | GI50 (SR leukemia) [µM]
1 | COc1ccccc1N1CCN(CCCNC(=O)c2cc(Cl)c(N)c(Cl)c2)CC1 | > 100 | > 100 | > 100 | > 100 | > 100 | > 100 | 67.5 | > 100 |  |  |  |  |  |  |  |  |  |  | 
2 | COc1cc(CNc2nc3cc(C(F)(F)F)ccc3nc2-c2ccccc2)cc(OC)c1OC | > 100 | > 100 |  | 6.62 |  |  | > 100 | 33.3 | > 100 | > 100 |  |  |  |  |  |  |  |  | 
3 | Cc1ccc(S(=O)(=O)NC(=O)NNc2ccc(F)cc2)cc1 | > 100 | > 100 | > 100 | > 100 | > 100 | > 100 |  | > 100 | > 58.2 | > 100 |  |  |  |  |  |  |  |  | 
4 | CC(C)(C)OC(=O)C1C(=O)NC(=O)CC1C(COCc1ccccc1)OCc1ccccc1 (stereo not given) | > 100 | 45.3 |  | 38.7 |  |  | 64.1 |  | > 100 | 46.3 |  |  |  |  |  |  |  |  | 
5 | O=C([CH-]C(=O)c1ccccc1)c1ccccc1.O=C([CH-]C(=O)c1ccccc1)c1ccccc1.[O]=[U+2]=[O] | 18.7 |  | 14 |  | 12.3 | 7.89 |  | 6.91 |  | 4.79 | 3.17 | 2.42 | 4.01 | 2.59 | 1.81 | 2.43 |  |  | 
6 | C[C@]1(S(=O)(=O)c2ccccc2)C[C@H]2N(Cc3ccccc3)[C@@H]1CCC21OCCO1 | > 100 | > 100 | > 100 | > 100 | > 100 |  |  | > 100 | > 100 | > 100 |  |  |  |  |  |  |  |  | 
7 | CN1COCc2cc3cc4c(cc3nc21)OCCO4 | > 100 | > 100 | > 100 |  | > 100 | > 100 |  | > 100 | > 100 |  |  |  |  |  |  |  |  |  | 
8 | Nc1nc(Nc2ccc(Cl)cc2)sc1C(=O)c1cccs1 | > 100 | > 100 | > 100 | > 100 | 50 | 72.9 | 14.9 | > 100 |  | 72.1 |  |  |  |  |  |  |  |  | 
9 | CCN1C(=O)N(CC)C2Nn3c(s/c(=C4\C(=O)N(C)c5ccccc54)c3=O)=NC21 (stereo not given) | > 100 |  | > 100 | > 100 |  | 5.68 | > 100 |  | > 100 | > 100 | 5.08 | 1.98 |  | 1.67 | 1.99 |  | 0.727 | 3.14 | 0.978
10 | CCCCC#CS(=O)(=O)C(F)(F)F | > 100 |  | 98.9 |  | > 100 | > 100 |  | 99.6 | > 100 | > 100 |  |  |  |  |  |  |  |  | 
11 | CCOC(=O)C1(C(=O)OCC)CCCN1C(=O)[C@H](CNC(=O)OC(C)(C)C)NC(=O)OCc1ccccc1 | > 100 | > 100 | > 100 | > 100 | > 100 |  | > 100 |  | > 100 | > 100 |  |  |  |  |  |  |  |  | 
12 | COC(=O)C1OC(O[C@H]2CC[C@]3(C)[C@H]4CC=C5[C@@H]6CC(C)(C)CC[C@]6(C(=O)OC6OCC(O)C(O)C6OC6OC(C)C(OC7OCC(OC8OCC(O)C(O)C8O)C(O)C7O)C(O)C6O)[C@H](O)C[C@@]5(C)[C@]4(C)CC[C@H]3C2(C)C)C(O)C(O)C1O (stereo not given in full) | 9.63 | 20.2 | 21.6 | 13.2 | 28.1 | 3.94 |  | 10.6 |  | 20.9 |  |  |  |  |  |  |  |  | 
13 | O=C(O)CSC(NC(=O)C(C(F)(F)F)C(F)(F)F)(C(F)(F)F)C(F)(F)F | > 100 | > 100 |  | > 100 | > 100 | > 100 | > 100 |  | > 100 |  |  |  |  |  |  |  |  |  | 
14 | OCC(O)C(O)C(O)/C=N/Nc1nc(O)c(/C=C2\C=Nc3ccccc32)[nH]1 (stereo not given) | > 100 | > 100 | > 100 | > 100 | > 100 |  |  | > 100 | > 100 | > 100 |  |  |  |  |  |  |  |  | 
15 | O=c1n(Cc2ccccc2)c(=O)n2c(=O)n(Cc3ccccc3)c(=O)n12 |  | > 100 | > 100 | > 100 | > 100 | > 100 | > 100 | > 100 | > 100 |  |  |  |  |  |  |  |  |  | 
16 | CC1=CC(=O)CC2(C)CCC(C(C)CC(=O)CC(C)C)CC12 (stereo not given) | 34.8 | 31 | > 100 |  |  | > 100 | 41.6 | 59.1 | > 100 |  |  |  |  |  |  |  |  |  | 
17 | O=C(c1ccccc1)N1C(=S)N=C(Nc2ccccc2)C1=Nc1ccccc1 | > 100 | > 100 | > 100 | > 100 | > 100 | > 100 | > 100 | > 100 | > 100 |  |  |  |  |  |  |  |  |  | 
18 | CC(C)CCn1nc(N)c2nc3ccccc3nc21 | > 100 | > 100 | > 100 |  | > 100 | > 100 | > 100 | > 100 | > 100 | > 100 |  |  |  |  |  |  |  |  | 
19 | COC(=O)[C@H](C)NC(=O)[C@H](CSC)N1C(=O)N[C@@H](C(C)C)C1=O | > 100 | > 100 | > 100 | > 100 | > 100 |  | > 100 | > 100 | > 100 | > 100 |  |  |  |  |  |  |  |  | 
20 | Nc1ccc2nc3n(c2c1)C(=O)c1ccccc1-3 | > 100 | > 100 | > 100 |  | > 100 |  | > 100 | > 100 | > 100 | > 100 |  |  |  |  |  |  |  |  | 
21 | COc1ccc(-c2csc(NC(=O)CSc3nc(C)c(-c4ccccc4)n3Nc3ccccc3)n2)cc1 | > 100 |  | > 100 | 7.49 | > 100 | > 100 | > 100 | > 100 | > 100 | > 100 | 4.87 | 8.24 | > 100 | 31.2 | 9.61 | 7.35 | 5.29 | 2.82 | 5.47
22 | COc1cc([C@@H]2c3cc4c(cc3[C@@H](c3c(O)cc(O)c5c3O[C@H](c3ccc(O)c(O)c3)[C@@H](O)C5)[C@H]3COC(=O)[C@H]23)OCO4)cc(OC)c1O | > 100 | > 100 | > 100 | > 100 | > 100 | > 100 |  | > 100 | > 100 | > 100 |  |  |  |  |  |  |  |  | 
